These molecules were tested against T1, 6His-Tev-LRRK2 (1326-2527) (Homo sapiens, UniProt Q5S007) (assay: LRRK2 AlphaScreen desensitised protein substrate assay). Settings: excess of ATP present (2 mM ATP); read-out: pIC50 in the LRRK2 alphascreen desensitised protein substrate assay (converted).
T1 construct: A LRRK2 cDNA encoding residues 1326-2527 was received from Dundee University; made in house; host or cells: Spodoptera frugiperda (Sf9) insect cells, baculovirus
T1 sequence (Q5S007 1326-2527): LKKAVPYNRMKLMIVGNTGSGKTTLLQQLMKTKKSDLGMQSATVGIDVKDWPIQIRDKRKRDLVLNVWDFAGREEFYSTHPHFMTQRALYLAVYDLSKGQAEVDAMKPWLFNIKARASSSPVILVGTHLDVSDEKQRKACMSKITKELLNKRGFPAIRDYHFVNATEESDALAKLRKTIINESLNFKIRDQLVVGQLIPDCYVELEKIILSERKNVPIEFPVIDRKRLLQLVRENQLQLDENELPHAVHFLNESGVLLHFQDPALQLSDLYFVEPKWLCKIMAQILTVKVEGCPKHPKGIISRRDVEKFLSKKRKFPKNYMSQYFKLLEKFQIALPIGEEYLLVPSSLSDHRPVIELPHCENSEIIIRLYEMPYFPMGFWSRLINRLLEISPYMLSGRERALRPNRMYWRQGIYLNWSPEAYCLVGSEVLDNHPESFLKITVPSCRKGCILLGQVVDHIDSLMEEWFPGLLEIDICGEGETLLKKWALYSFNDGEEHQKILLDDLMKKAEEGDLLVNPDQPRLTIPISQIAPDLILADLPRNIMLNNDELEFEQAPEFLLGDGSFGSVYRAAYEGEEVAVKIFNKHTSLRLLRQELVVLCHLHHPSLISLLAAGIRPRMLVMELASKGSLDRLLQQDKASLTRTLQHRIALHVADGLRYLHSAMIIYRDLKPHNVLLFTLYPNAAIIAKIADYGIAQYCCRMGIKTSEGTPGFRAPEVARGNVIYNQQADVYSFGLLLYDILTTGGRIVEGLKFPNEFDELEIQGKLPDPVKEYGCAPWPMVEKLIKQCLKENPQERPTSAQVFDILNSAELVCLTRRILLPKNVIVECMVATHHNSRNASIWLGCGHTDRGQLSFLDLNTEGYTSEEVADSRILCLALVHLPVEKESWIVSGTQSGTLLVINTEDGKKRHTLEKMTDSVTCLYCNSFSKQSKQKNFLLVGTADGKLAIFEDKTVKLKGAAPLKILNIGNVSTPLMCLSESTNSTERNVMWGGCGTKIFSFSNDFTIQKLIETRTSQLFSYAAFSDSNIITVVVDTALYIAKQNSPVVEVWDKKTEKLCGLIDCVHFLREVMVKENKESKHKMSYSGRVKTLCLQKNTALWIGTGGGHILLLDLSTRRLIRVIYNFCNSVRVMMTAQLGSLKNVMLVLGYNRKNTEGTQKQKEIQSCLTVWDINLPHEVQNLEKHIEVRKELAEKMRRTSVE
Type: biochemical
Experimental: (§1) a) 100 nl of a 1:4 serial dilution of test compound with a top final assay concentration of 30 μM is added to certain wells in a low volume 384 well black plate. 100 nl of DMSO is used in certain wells as controls.
b) 3 μl enzyme solution (80 nM purified recombinant 6His-Tev-LRRK2 (1326-2527) in assay buffer: 50 mM Hepes (pH 7.2), 10 mM MgCl2, 150 mM NaCl, 5% glycerol, 0.0025% triton X-100 and 1 mM DTT) is added to certain wells.
Plates are then incubated for a further 1-2 hours at room temperature (incubation time varies depending upon rate and linearity of reaction with differing enzyme batches).
d) 6 μl detection solution (1:250 dilution of AlphaLisa Protein A Acceptor beads (PerkinElmer), 1:64 dilution of AlphaLisa Gluthathione Donor beads (PerkinElmer) and 1:600 dilution (dilution determined on a batch to batch basis) of Phospho-Ezrin (Thr567)/Radixin (Thr564)/Moesin (Thr558) Polyclonal Antibody (New England Biolabs) in a buffer: 50 mM Hepes (pH 7.5), 250 mM NaCl, 60 mM EDTA, 1% PEG and 0.01% Brij 35) is added to each well. Plates are then incubated for a further 2 hours at room temperature in the dark before reading on an EnVision™ plate reader with AlphaScreen HTS turbo option module and AlphaScreen settings. Data is analysed using ActivityBase software (IDBS).
LRRK2 AlphaScreen Desensitised Protein Substrate Assay
This is conducted as described for the LRRK2 alphascreen protein substrate assay, with the following differences: • 1. The concentration of ATP in the substrate solution was 2 mM. • 2. The plates were incubated for 20 minutes at room temperature following addition of the substrate solution. Pharmacological Data
In the case of `NCc1ccc(OCc2ccc(F)c(F)c2)c(C(=O)Nc2cccnc2)c1` [Example 120A, 5-(Aminomethyl)-2-{[(3,4-difluorophenyl)methyl]oxy}-N-3-pyridinylbenzamide], the IC50 is reported as greater than 25.1 µM. In the case of `O=C(Nc1cn[nH]c1)c1cc(Br)ccc1OCc1ccccc1` [Example 51, 5-Bromo-2-[(phenylmethyl)oxy]-N-1H-pyrazol-4-ylbenzamide], the IC50 is reported as no more than 20 µM. With `CN1CCN(S(=O)(=O)c2ccc(OCc3ccccc3)c(C(=O)Nc3cccnc3)c2)CC1` [Example 43, 5-[(4-Methyl-1-piperazinyl)sulfonyl]-2-[(phenylmethyl)oxy]-N-3-pyridinylbenzamide] the IC50 was greater than 25.1 µM. For `Cn1cc(NC(=O)c2cc(-c3ccncc3)ccc2OCc2ccccc2)cn1` [Example 65, N-(1-Methyl-1H-pyrazol-4-yl)-2-[(phenylmethyl)oxy]-5-(4-pyridinyl)benzamide], the IC50 was no more than 20 µM. `Cc1oncc1NC(=O)c1cc(-c2ccncc2)ccc1OCc1ccccc1` [Example 62, N-(5-Methyl-4-isoxazolyl)-2-[(phenylmethyl)oxy]-5-(4-pyridinyl)benzamide] showed an IC50 greater than 25.1 µM. For `Cc1nocc1NC(=O)c1cc(C(=O)N2CCOCC2)ccc1OCc1ccc(F)cc1` [Example 124, 2-{[(4-Fluorophenyl)methyl]oxy}-N-(3-methyl-4-isoxazolyl)-5-(4-morpholinylcarbonyl)benzamide], the IC50 was greater than 25.1 µM. With `CN1CCN(C(=O)c2ccc(OCc3ccccc3)c(C(=O)Nc3cccnc3)c2)CC1` [Example 35, 5-[(4-Methyl-1-piperazinyl)carbonyl]-2-[(phenylmethyl)oxy]-N-3-pyridinylbenzamide] the IC50 was no more than 20 µM. `O=C(Nc1cccnc1CO)c1cc(-c2ccncc2)ccc1OCc1ccccc1` [Example 55, N-[2-(Hydroxymethyl)-3-pyridinyl]-2-[(phenylmethyl)oxy]-5-(4-pyridinyl)benzamide] was tested, and the IC50 was greater than 25.1 µM. For `O=C(Nc1cccnc1)c1cc(S(=O)(=O)N2CCOCC2)ccc1OCc1ccccc1` [Example 41, 5-(4-Morpholinylsulfonyl)-2-[(phenylmethyl)oxy]-N-3-pyridinylbenzamide], the IC50 was greater than 25.1 µM. `Cc1ccncc1NC(=O)c1cc(-c2ccncc2)ccc1OCc1ccccc1` [Example 52, N-(4-Methyl-3-pyridinyl)-2-[(phenylmethyl)oxy]-5-(4-pyridinyl)benzamide] was tested, and the IC50 was greater than 25.1 µM. Work on `Cc1nocc1NC(=O)c1cc(C(F)(F)F)ccc1OCc1ccc(F)cc1` [Example 133, 2-{[(4-fluorophenyl)methyl]oxy}-N-(3-methyl-4-isoxazolyl)-5-(trifluoromethyl)benzamide] yielded an IC50 greater than 25.1 µM. `O=C(Nc1cccnc1F)c1cc(-c2ccncc2)ccc1OCc1ccccc1` [Example 54, N-(2-Fluoro-3-pyridinyl)-2-[(phenylmethyl)oxy]-5-(4-pyridinyl)benzamide] gave an IC50 of no more than 20 µM. In the case of `O=C(Nc1cccnc1)c1cc(C(=O)N2CCCCC2)ccc1OCc1ccccc1` [Example 36, 2-[(Phenylmethyl)oxy]-5-(1-piperidinylcarbonyl)-N-3-pyridinylbenzamide], the IC50 is reported as no more than 20 µM. `O=C(Nc1cnccc1CO)c1cc(-c2ccncc2)ccc1OCc1ccccc1` [Example 56, N-[4-(Hydroxymethyl)-3-pyridinyl]-2-[(phenylmethyl)oxy]-5-(4-pyridinyl)benzamide] gave an IC50 greater than 25.1 µM. For `O=C(Nc1ccnnc1)c1cc(C(F)(F)F)ccc1OCc1ccc(F)cc1` [Example 132, 2-{[(4-Fluorophenyl)methyl]oxy}-N-4-pyridazinyl-5-(trifluoromethyl)benzamide], the IC50 was no more than 20 µM. `O=C(Nc1cccnc1)c1cc(S(=O)(=O)N2CCCCC2)ccc1OCc1ccccc1` [Example 42, 2-[(Phenylmethyl)oxy]-5-(1-piperidinylsulfonyl)-N-3-pyridinylbenzamide] gave an IC50 greater than 25.1 µM. `O=C(Nc1cn[nH]c1)c1cc(-c2ccncc2)ccc1OCc1ccccc1` [Example 64, 2-[(Phenylmethyl)oxy]-N-1H-pyrazol-4-yl-5-(4-pyridinyl)benzamide] gave an IC50 of no more than 20 µM. Molecule `COC(=O)NCc1ccc(OCc2ccc(F)c(F)c2)c(C(=O)Nc2cccnc2)c1` [Example 120B, Methyl ({4-{[(3,4-difluorophenyl)methyl]oxy}-3-[(3-pyridinylamino)carbonyl]phenyl}methyl)carbamate] has an IC50 greater than 25.1 µM. In the case of `Cn1cc(NC(=O)c2cc(Br)ccc2OCc2ccccc2)cn1` [Example 50, 5-Bromo-N-(1-methyl-1H-pyrazol-4-yl)-2-[(phenylmethyl)oxy]benzamide], the IC50 is reported as no more than 20 µM. Molecule `COc1ccccc1COc1ccc(-c2cnn(C)c2)cc1C(=O)Nc1cccnc1` [Example 114, 2-({[2-(Methyloxy)phenyl]methyl}oxy)-5-(1-methyl-1H-pyrazol-4-yl)-N-3-pyridinylbenzamide] has an IC50 of no more than 20 µM. Molecule `Cc1nocc1NC(=O)c1cc(C(=O)N2CCOCC2)ccc1OCc1ccc(F)cc1F` [Example 126, 2-{[(2,4-Difluorophenyl)methyl]oxy}-N-(3-methyl-4-isoxazolyl)-5-(4-morpholinylcarbonyl)benzamide] has an IC50 of no more than 20 µM. In the case of `COc1ncccc1NC(=O)c1cc(-c2ccncc2)ccc1OCc1ccccc1` [Example 53, N-[2-(Methyloxy)-3-pyridinyl]-2-[(phenylmethyl)oxy]-5-(4-pyridinyl)benzamide], the IC50 is reported as greater than 25.1 µM. `O=C(Nc1ccnnc1)c1cc(CN2CCOCC2)ccc1OCc1ccc(F)c(F)c1` [Example 111, 2-{[(3,4-Difluorophenyl)methyl]oxy}-5-(4-morpholinylmethyl)-N-4-pyridazinylbenzamide] gave an IC50 of no more than 20 µM.

What follows are molecules tested against T1, 6His-Tev-LRRK2 (1326-2527) (assay: LRRK2 peptide substrate assay). Settings: Biotin-LRRKtide peptide substrate, ATP at Km; read-out: pIC50 in the LRRK2 peptide substrate assay (converted).
Type: biochemical
Experimental: Compounds of formula (I) may be tested for in vitro kinase activity in accordance with the following assays, using the non natural, in vitro, substrates moesin and the Longer Biotin-LRRKtide. Moesin and a shorter version of the peptide were identified as substrates in Jaleel et al, (2007, Biochem J, 405: 307-317).
LRRK2 Peptide Substrate Assay
as §1
b) 3 μl enzyme solution (80 nM purified recombinant 6His-Tev-LRRK2 (1326-2527) in assay buffer: 50 mM Hepes (pH 7.2), 10 mM MgCl2, 150 mM NaCl, 5% glycerol, 0.0025% triton X-100 and 1 mM DTT) is added to certain wells. […] Plates are then incubated for a further 1-2 hours at room temperature (incubation time varies depending upon rate and linearity of reaction with differing enzyme batches). d) 6 μl detection solution (50 nM Streptavidin SureLight® APC (PerkinElmer), 4 nM Eu-W1024 labelled anti-rabbit IgG antibody (PerkinElmer), 1:500 dilution (dilution determined on a batch to batch basis) of Phospho-Ezrin (Thr567)/Radixin (Thr564)/Moesin (Thr558) Polyclonal Antibody (New England Biolabs) and 60 mM EDTA in buffer: 40 mM Hepes (pH 7.2), 150 mM NaCl, 0.03% BSA) is added to each well. Plates are then incubated for a further 2 hours at room temperature before reading on a suitable plate reader (Excitation 330 nm, emission 620 nm (Eu) and 665 nm (APC)). Data is analysed using ActivityBase software (IDBS). LRRK2 AlphaScreen Protein Substrate Assay
Work on `Cc1oncc1NC(=O)c1cc(-c2cnn(C)c2)ccc1OCc1ccc(F)cc1` [Example 135, 2-{[(4-Fluorophenyl)methyl]oxy}-N-(5-methyl-4-isoxazolyl)-5-(1-methyl-1H-pyrazol-4-yl)benzamide] yielded an IC50 of no more than 0.1 µM. In the case of `O=C(Nc1cn[nH]c1)c1cc(Br)ccc1OCc1ccccc1` [Example 51, 5-Bromo-2-[(phenylmethyl)oxy]-N-1H-pyrazol-4-ylbenzamide], the IC50 is reported as no more than 0.1 µM.

Reference: patent US8778939B2, “Compounds” (Glaxo Group Limited, priority 2009, dated 2014)
